{"source": "patent US10799605B2", "about": "(3B PHARMACEUTICALS GMBH, priority 2014, dated 2020)", "key": {"[1]": {"target": "NTR1 (Homo sapiens (Human), UniProt P30989)", "sequence (P30989 whole entry)": "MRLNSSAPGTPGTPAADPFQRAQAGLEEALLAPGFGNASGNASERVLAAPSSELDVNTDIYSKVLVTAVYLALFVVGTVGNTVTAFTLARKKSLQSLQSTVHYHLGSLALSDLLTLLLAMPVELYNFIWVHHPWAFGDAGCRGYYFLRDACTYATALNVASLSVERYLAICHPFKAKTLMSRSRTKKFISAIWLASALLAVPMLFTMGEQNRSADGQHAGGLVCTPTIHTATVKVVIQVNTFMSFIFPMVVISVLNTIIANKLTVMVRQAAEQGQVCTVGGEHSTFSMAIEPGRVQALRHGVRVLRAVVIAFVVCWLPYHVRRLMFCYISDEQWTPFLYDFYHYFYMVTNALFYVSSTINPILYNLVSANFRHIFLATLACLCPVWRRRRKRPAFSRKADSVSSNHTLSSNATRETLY", "test": "Functional Ca2+ mobilisation assay (example part II)", "format": "cell-based", "conditions": "antagonist assay", "in_short": "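HT29 or NTR1-expressing HEK293 cells loaded with Ca5 dye for 1 h at 37 °C in buffer at pH 7.4, and fluorescence recorded for about 90 s after addition. EC50 derived from agonist serial dilutions; IC50 from antagonists pre-incubated 30 min before an EC80 agonist challenge.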"}, "[2]": {"test": "Plasma stability assay, human plasma", "format": "in vitro ADME", "procedure": "The plasma stability assay was performed to measure the degradation of compounds of the present invention in plasma. This is an important characteristic of a compound as compounds, with the exception of pro-drugs, which rapidly degrade in plasma generally show poor in vivo efficacy.\nThe plasma was spiked with a 10 mM analyte solution in dimethyl sulfoxide to a final concentration of 10 μM, vortexed, and aliquotted to 50 μl samples. Two aliquots were stored at −20° C. until further treatment. Another two aliquots were incubated using an Eppendorf Thermomixer at 37° C. for 1, 4, and 24 hours. Sample clean-up was performed using a protein precipitation plate (Phenomenex Strata Impact, 64722-1-324-1) and using acetonitrile as precipitation agent. […] An aliquot of 10 μl was diluted with 90 μl 0.1% aqueous trifluoroacetic acid solution. The determination of the analyte in the clean sample solutions was performed on a Thermo TSQ Quantum Ultra triple quadrupole mass spectrometer equipped with a thermo Surveyor HPLC. The chromatographic separation was carried out on a Phenomenex Kinetex XB-C18 HPLC column (50×2 mm, […] particle size) with gradient elution using a mixture of 0.01% trifluoroacetic acid and 0.05% formic acid in water as eluent A and methanol as eluent B (20% B to 100% in 8 min, 400 μl/min, 40° C.). For mass spectrometric detection the selected reaction monitoring (SRM) was used.\nQuantitation was performed by external matrix calibration using an internal standard."}, "[3]": {"test": "Plasma protein binding assay, human", "format": "in vitro ADME", "conditions": "plasma proteins, 4 h at 37° C., equilibrium dialysis, read-out: % bound [human]", "from_the_text": "A drug's efficiency may be affected by the degree to which it binds to the proteins within blood plasma. A drug in blood exists in two forms: bound and unbound. Depending on a specific drug's affinity for plasma protein, a proportion of the drug may become bound to plasma proteins, with the remainder being unbound. […] It is also the fraction that may be metabolized and/or excreted. Protein binding can influence the drug's biological half-life in the body. The bound portion may act as a reservoir or depot from which the drug is slowly released as the unbound form. In order to determine the binding characteristics of the compounds of the present invention as listed in the following Table to human or mouse plasma protein, respectively, a plasma protein binding assay was carried out. All compounds have a plasma protein binding that is appropriate for diagnostic, therapeutic and theranostic use of these compounds according to the present invention.\nThe binding of test substances to human and murine plasma proteins was tested by Cerep (Celle l'Evescault, France; Catalog reference 2194 [human] and 2223 [mouse]) according to Banker et al., J. Pharm. Sci., 2003, 92, 967-974. Test compounds were incubated with human or murine plasma proteins for 4 h at 37° C. Subsequently, the fraction of compound bound to plasma proteins was determined by equilibrium dialysis and HPLC-MS/MS detection. […]"}, "[4]": {"target": "A1 (h) (Homo sapiens (Human), UniProt P30542)", "sequence (P30542 whole entry)": "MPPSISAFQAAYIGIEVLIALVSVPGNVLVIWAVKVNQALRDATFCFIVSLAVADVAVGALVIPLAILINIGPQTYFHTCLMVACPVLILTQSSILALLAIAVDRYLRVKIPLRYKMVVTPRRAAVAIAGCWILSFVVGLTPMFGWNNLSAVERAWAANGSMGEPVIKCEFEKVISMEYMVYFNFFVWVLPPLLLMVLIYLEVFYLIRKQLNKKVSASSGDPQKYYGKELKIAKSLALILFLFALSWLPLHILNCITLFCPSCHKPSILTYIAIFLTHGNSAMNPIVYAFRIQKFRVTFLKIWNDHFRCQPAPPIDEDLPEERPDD", "test": "ExpresSProfile: adenosine receptor 1, antagonist radioligand", "format": "binding", "conditions": "Test Concentration 1.0E−05 M"}, "[5]": {"target": "GAL2 (h) (Homo sapiens (Human), UniProt O43603)", "sequence (O43603 whole entry)": "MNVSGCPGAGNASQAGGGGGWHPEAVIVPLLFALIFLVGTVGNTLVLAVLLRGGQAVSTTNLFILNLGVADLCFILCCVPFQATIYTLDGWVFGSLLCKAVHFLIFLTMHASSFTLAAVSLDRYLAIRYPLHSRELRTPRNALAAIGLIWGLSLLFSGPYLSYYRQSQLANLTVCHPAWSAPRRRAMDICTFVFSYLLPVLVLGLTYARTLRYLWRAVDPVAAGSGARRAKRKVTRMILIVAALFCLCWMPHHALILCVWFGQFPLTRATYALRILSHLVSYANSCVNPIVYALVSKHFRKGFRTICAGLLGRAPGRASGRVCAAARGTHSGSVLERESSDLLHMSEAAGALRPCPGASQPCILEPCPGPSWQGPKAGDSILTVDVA", "test": "ExpresSProfile: galanin receptor 2, agonist radioligand", "format": "binding", "conditions": "Test Concentration 1.0E−05 M"}, "[6]": {"target": "M2 (h) (Homo sapiens (Human), UniProt P08172)", "sequence (P08172 whole entry)": "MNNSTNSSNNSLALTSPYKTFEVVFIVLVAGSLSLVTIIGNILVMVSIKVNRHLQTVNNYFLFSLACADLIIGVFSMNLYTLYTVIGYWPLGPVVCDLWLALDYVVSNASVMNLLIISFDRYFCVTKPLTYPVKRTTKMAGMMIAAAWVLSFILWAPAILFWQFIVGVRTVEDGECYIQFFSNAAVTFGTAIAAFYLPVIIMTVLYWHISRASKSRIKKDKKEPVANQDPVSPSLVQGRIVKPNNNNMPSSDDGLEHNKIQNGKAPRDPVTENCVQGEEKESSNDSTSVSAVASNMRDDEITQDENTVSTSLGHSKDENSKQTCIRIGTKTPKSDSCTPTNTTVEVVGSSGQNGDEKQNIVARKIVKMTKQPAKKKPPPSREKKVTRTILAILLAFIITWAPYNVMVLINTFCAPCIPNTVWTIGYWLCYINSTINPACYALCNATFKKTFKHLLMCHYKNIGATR", "test": "ExpresSProfile: muscarinic receptor 2, antagonist radioligand", "format": "binding", "conditions": "Test Concentration 1.0E−05 M"}, "[7]": {"target": "NK3 (h) (Homo sapiens (Human), UniProt P29371)", "sequence (P29371 whole entry)": "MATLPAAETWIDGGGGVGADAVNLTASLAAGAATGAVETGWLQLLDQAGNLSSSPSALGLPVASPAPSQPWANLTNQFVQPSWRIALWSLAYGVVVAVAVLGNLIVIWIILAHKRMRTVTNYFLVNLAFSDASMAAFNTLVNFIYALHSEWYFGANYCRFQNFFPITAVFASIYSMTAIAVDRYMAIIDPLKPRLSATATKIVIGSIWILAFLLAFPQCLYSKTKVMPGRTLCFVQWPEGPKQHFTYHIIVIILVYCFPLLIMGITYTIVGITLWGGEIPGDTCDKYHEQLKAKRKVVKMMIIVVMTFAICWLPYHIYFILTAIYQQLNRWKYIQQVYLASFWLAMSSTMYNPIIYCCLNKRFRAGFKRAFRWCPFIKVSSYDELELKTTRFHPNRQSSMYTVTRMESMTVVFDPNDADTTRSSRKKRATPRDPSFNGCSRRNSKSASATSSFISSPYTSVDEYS", "test": "ExpresSProfile: neurokinin receptor 3, antagonist radioligand", "format": "binding", "conditions": "Test Concentration 1.0E−05 M"}, "[8]": {"target": "NOP (ORL1) (h) (Homo sapiens (Human), UniProt P41146)", "sequence (P41146 whole entry)": "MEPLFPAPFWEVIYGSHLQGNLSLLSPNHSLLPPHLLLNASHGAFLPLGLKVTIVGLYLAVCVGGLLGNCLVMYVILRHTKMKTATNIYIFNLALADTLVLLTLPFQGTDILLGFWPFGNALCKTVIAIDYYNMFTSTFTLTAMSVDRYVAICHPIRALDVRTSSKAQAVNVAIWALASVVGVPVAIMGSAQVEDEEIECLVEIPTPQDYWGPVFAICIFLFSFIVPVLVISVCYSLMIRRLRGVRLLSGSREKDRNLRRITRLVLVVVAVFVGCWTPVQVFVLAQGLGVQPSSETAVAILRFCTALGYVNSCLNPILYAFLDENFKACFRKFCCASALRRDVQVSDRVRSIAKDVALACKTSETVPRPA", "test": "ExpresSProfile: nociception receptor, agonist radioligand", "format": "binding", "conditions": "Test Concentration 1.0E−05 M"}, "[9]": {"target": "5-HT1B (Rattus norvegicus, UniProt P28564)", "test": "ExpresSProfile: 5-hydroxytryptamine receptor 1B, antagonist radioligand", "format": "binding", "conditions": "Test Concentration 1.0E−05 M"}, "[10]": {"target": "5-HT2A (h) (Homo sapiens (Human), UniProt P28223)", "sequence (P28223 whole entry)": "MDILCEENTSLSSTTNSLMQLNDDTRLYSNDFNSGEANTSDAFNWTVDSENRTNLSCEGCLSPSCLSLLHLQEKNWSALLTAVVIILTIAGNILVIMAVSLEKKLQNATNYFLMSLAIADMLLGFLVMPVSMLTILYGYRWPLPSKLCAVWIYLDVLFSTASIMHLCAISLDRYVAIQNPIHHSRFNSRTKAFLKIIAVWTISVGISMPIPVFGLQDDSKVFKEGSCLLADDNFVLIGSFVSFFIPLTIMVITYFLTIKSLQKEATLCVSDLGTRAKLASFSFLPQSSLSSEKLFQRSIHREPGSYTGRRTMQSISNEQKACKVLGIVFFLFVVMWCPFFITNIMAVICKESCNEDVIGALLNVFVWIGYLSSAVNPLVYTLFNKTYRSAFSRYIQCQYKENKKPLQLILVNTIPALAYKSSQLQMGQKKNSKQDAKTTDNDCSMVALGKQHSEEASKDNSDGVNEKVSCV", "test": "ExpresSProfile: 5-hydroxytryptamine receptor 2A, antagonist radioligand", "format": "binding", "conditions": "Test Concentration 1.0E−05 M"}, "[11]": {"test_system": "sst (non-selective)", "test": "ExpresSProfile: somatostatin receptor, agonist radioligand", "format": "binding", "conditions": "Test Concentration 1.0E−05 M"}, "[12]": {"test_system": "KV channel", "test": "ExpresSProfile: KV channel, antagonist radioligand", "format": "binding", "conditions": "Test Concentration 1.0E−05 M"}, "[13]": {"conditions": "read-out: % Inhibition of Control Specific Binding"}, "[14]": {"conditions": "read-out: % of Control Specific Binding 1st"}, "[15]": {"conditions": "read-out: % of Control Specific Binding 2nd"}, "[16]": {"conditions": "read-out: % of Control Specific Binding Mean"}}, "note": "Read-outs that look alike come from different tables or passages of the source.", "data": [{"compound": "COc1cccc(OC)c1-c1cc(C(=O)NC2(C(=O)O)C3CC4CC(C3)CC2C4)nn1-c1ccc(C(=O)N(C)CCCN(C)CCCN(C)C(=O)CN2CCN(CC(=O)O)CCN(CC(=O)O)CCN(CC(=O)O)CC2)cc1C(C)C", "note": "(stereo not shown) [(IIIa), 2-{[1-{4-[(3-{[3-(DOTA-methyl-amino)-propyl]-methyl-amino}-propyl)-methyl-carbamoyl]-2-isopropyl-phenyl}-5-(2,6-dimethoxy-phenyl)-1H-pyrazole-3-carbonyl]-amino}-adamantane-2-carboxylic acid]", "values": [{"measurement": "IC50", "setting": "[1]", "result": 20, "unit": "nM"}, {"measurement": "stability in human plasma", "setting": "[2]", "result": "highly stable"}, {"measurement": "% remaining after 24 h incubation, Human plasma", "setting": "[2]; 10 μM, 37° C., 24 h", "result": ">90", "unit": "%"}, {"measurement": "fraction unbound at 4 h", "setting": "[3]", "result": 0.01}, {"measurement": "inhibition at 10 µM", "setting": "[4]; [13]", "result": -24, "unit": "%"}, {"measurement": "remaining activity at 10 µM", "setting": "[4]; [14]", "result": 143, "unit": "%"}, {"measurement": "remaining activity at 10 µM", "setting": "[4]; [15]", "result": 104, "unit": "%"}, {"measurement": "remaining activity at 10 µM", "setting": "[4]; [16]", "result": 124, "unit": "%"}, {"measurement": "inhibition at 10 µM", "setting": "[5]; [13]", "result": 1, "unit": "%"}, {"measurement": "remaining activity at 10 µM", "setting": "[5]; [14]", "result": 96.5, "unit": "%"}, {"measurement": "remaining activity at 10 µM", "setting": "[5]; [15]", "result": 102, "unit": "%"}, {"measurement": "remaining activity at 10 µM", "setting": "[5]; [16]", "result": 99.3, "unit": "%"}, {"measurement": "inhibition at 10 µM", "setting": "[6]; [13]", "result": -17, "unit": "%"}, {"measurement": "remaining activity at 10 µM", "setting": "[6]; [14]", "result": 124, "unit": "%"}, {"measurement": "remaining activity at 10 µM", "setting": "[6]; [15]", "result": 111, "unit": "%"}, {"measurement": "remaining activity at 10 µM", "setting": "[6]; [16]", "result": 117, "unit": "%"}, {"measurement": "inhibition at 10 µM", "setting": "[7]; [13]", "result": -1, "unit": "%"}, {"measurement": "remaining activity at 10 µM", "setting": "[7]; [14]", "result": 102, "unit": "%"}, {"measurement": "remaining activity at 10 µM", "setting": "[7]; [15]", "result": 98.5, "unit": "%"}, {"measurement": "remaining activity at 10 µM", "setting": "[7]; [16]", "result": 100, "unit": "%"}, {"measurement": "inhibition at 10 µM", "setting": "[8]; [13]", "result": -7, "unit": "%"}, {"measurement": "remaining activity at 10 µM", "setting": "[8]; [14]", "result": 104, "unit": "%"}, {"measurement": "remaining activity at 10 µM", "setting": "[8]; [15]", "result": 109, "unit": "%"}, {"measurement": "remaining activity at 10 µM", "setting": "[8]; [16]", "result": 107, "unit": "%"}, {"measurement": "inhibition at 10 µM", "setting": "[9]; [13]", "result": -7, "unit": "%"}, {"measurement": "remaining activity at 10 µM", "setting": "[9]; [14]", "result": 107, "unit": "%"}, {"measurement": "remaining activity at 10 µM", "setting": "[9]; [15]", "result": 106, "unit": "%"}, {"measurement": "remaining activity at 10 µM", "setting": "[9]; [16]", "result": 107, "unit": "%"}, {"measurement": "inhibition at 10 µM", "setting": "[10]; [13]", "result": -2, "unit": "%"}, {"measurement": "remaining activity at 10 µM", "setting": "[10]; [14]", "result": 101, "unit": "%"}, {"measurement": "remaining activity at 10 µM", "setting": "[10]; [15]", "result": 103, "unit": "%"}, {"measurement": "remaining activity at 10 µM", "setting": "[10]; [16]", "result": 102, "unit": "%"}, {"measurement": "% Inhibition of Control Specific Binding", "setting": "[11]", "result": "−11", "unit": "%"}, {"measurement": "% of Control Specific Binding 1st", "setting": "[11]", "result": 111.6, "unit": "%"}, {"measurement": "% of Control Specific Binding 2nd", "setting": "[11]", "result": 110.0, "unit": "%"}, {"measurement": "% of Control Specific Binding Mean", "setting": "[11]", "result": 110.8, "unit": "%"}, {"measurement": "% Inhibition of Control Specific Binding", "setting": "[12]", "result": "−4", "unit": "%"}, {"measurement": "% of Control Specific Binding 1st", "setting": "[12]", "result": 104.3, "unit": "%"}, {"measurement": "% of Control Specific Binding 2nd", "setting": "[12]", "result": 104.2, "unit": "%"}, {"measurement": "% of Control Specific Binding Mean", "setting": "[12]", "result": 104.3, "unit": "%"}]}]}
